Measurements taken from the supplement of paper PMC11451515.

System: P12-Ichikawa
Assay: cell viability relative to DMSO control; higher = less cytotoxic
Conditions: 48 h
Method in brief: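 Library compounds in DMSO were pin-dosed in an 11-point threefold series (47 μM to 0.79 nM) onto leukemia cells in 1536-well plates (5 μl). Plates held 500 cells/well of NOMO1 or SEM or 1000 cells/well of P12-Ichikawa, each adapted for at least four passages in each medium. Luminescence was read with CellTiter-Glo One after 48 h at 37°C. Viability means the per-plate percentage relative to DMSO wells, using cell-free wells as background.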

[1] = HPLM + 10% dialyzed FBS, 0.000781 µM
[2] = HPLM + 10% dialyzed FBS, 0.00234 µM
[3] = HPLM + 10% dialyzed FBS, 0.00702 µM
[4] = HPLM + 10% dialyzed FBS, 0.0211 µM
[5] = HPLM + 10% dialyzed FBS, 0.0632 µM
[6] = HPLM + 10% dialyzed FBS, 0.19 µM
[7] = HPLM + 10% dialyzed FBS, 0.569 µM
[8] = HPLM + 10% dialyzed FBS, 1.71 µM
[9] = HPLM + 10% dialyzed FBS, 5.12 µM
[10] = HPLM + 10% dialyzed FBS, 15.4 µM
[11] = HPLM + 10% dialyzed FBS, 46.1 µM
[12] = RPMI 5 mM glucose + 10% FBS, 0.000781 µM
[13] = RPMI 5 mM glucose + 10% FBS, 0.00234 µM
[14] = RPMI 5 mM glucose + 10% FBS, 0.00702 µM
[15] = RPMI 5 mM glucose + 10% FBS, 0.0211 µM
[16] = RPMI 5 mM glucose + 10% FBS, 0.0632 µM
[17] = RPMI 5 mM glucose + 10% FBS, 0.19 µM
[18] = RPMI 5 mM glucose + 10% FBS, 0.569 µM
[19] = RPMI 5 mM glucose + 10% FBS, 1.71 µM
[20] = RPMI 5 mM glucose + 10% FBS, 5.12 µM
[21] = RPMI 5 mM glucose + 10% FBS, 15.4 µM
[22] = RPMI 5 mM glucose + 10% FBS, 46.1 µM
[23] = RPMI 5 mM glucose + 10% dialyzed FBS, 0.000781 µM
[24] = RPMI 5 mM glucose + 10% dialyzed FBS, 0.00234 µM
[25] = RPMI 5 mM glucose + 10% dialyzed FBS, 0.00702 µM
[26] = RPMI 5 mM glucose + 10% dialyzed FBS, 0.0211 µM
[27] = RPMI 5 mM glucose + 10% dialyzed FBS, 0.0632 µM
[28] = RPMI 5 mM glucose + 10% dialyzed FBS, 0.19 µM
[29] = RPMI 5 mM glucose + 10% dialyzed FBS, 0.569 µM
[30] = RPMI 5 mM glucose + 10% dialyzed FBS, 1.71 µM
[31] = RPMI 5 mM glucose + 10% dialyzed FBS, 5.12 µM
[32] = RPMI 5 mM glucose + 10% dialyzed FBS, 15.4 µM
[33] = RPMI 5 mM glucose + 10% dialyzed FBS, 46.1 µM

Row | Compound | cell viability [1] [%] | cell viability [2] [%] | cell viability [3] [%] | cell viability [4] [%] | cell viability [5] [%] | cell viability [6] [%] | cell viability [7] [%] | cell viability [8] [%] | cell viability [9] [%] | cell viability [10] [%] | cell viability [11] [%] | cell viability [12] [%] | cell viability [13] [%] | cell viability [14] [%] | cell viability [15] [%] | cell viability [16] [%] | cell viability [17] [%] | cell viability [18] [%] | cell viability [19] [%] | cell viability [20] [%] | cell viability [21] [%] | cell viability [22] [%] | cell viability [23] [%] | cell viability [24] [%] | cell viability [25] [%] | cell viability [26] [%] | cell viability [27] [%] | cell viability [28] [%] | cell viability [29] [%] | cell viability [30] [%] | cell viability [31] [%] | cell viability [32] [%] | cell viability [33] [%]
1 | OC[C@H]1O[C@H](C[C@@H]1O)N2\C=C(\I)C(=O)NC2=O | 113 | 114 | 120 | 118 | 115 | 124 | 119 | 115 | 98.2 | 64.4 | 58.3 | 110 | 114 | 124 | 121 | 129 | 128 | 132 | 123 | 115 | 106 | 96.7 | 118 | 114 | 108 | 119 | 114 | 131 | 127 | 115 | 114 | 114 | 110
2 | O=P1(NCCCl)OCCCN1CCCl (centres undefined) | 84 | 94 | 88.4 | 91.6 | 92.9 | 88.1 | 95.1 | 93.9 | 91.8 | 62.5 | 94.2 | 82.8 | 76.7 | 81.5 | 85.6 | 88.8 | 86.7 | 87.9 | 86.1 | 92 | 93.2 | 66.7 | 77 | 77.2 | 75.3 | 78.1 | 84.8 | 82.7 | 85.9 | 85.2 | 87.2 | 87 | 79.8
3 | CCCCCCCN(CC)CCCC(O)c1ccc(NS(C)(=O)=O)cc1.CCCCCCCN(CC)CCCC(O)c1ccc(NS(C)(=O)=O)cc1.O=C(O)/C=C/C(=O)O (centres undefined) | 111 | 108 | 116 | 111 | 101 | 125 | 113 | 112 | 112 | 88.9 | 77.7 | 107 | 118 | 113 | 108 | 85.4 | 115 | 116 | 111 | 102 | 89.6 | 69.1 | 100 | 101 | 106 | 113 | 94.8 | 108 | 111 | 113 | 98.9 | 93 | 69.2
4 | CCC[S+](=O)([O-])Nc1ccc(F)c(C(=O)c2c[nH]c3ncc(-c4ccc(Cl)cc4)cc23)c1F | 116 | 110 | 107 | 115 | 114 | 107 | 108 | 105 | 99.9 | 98.5 | 93.5 | 116 | 109 | 117 | 110 | 118 | 110 | 99.1 | 110 | 108 | 96.4 | 98.2 | 124 | 120 | 122 | 120 | 125 | 120 | 113 | 107 | 108 | 103 | 95.2
5 | C[C@@H](Oc1ccc2[nH]nc(/C=C/c3cnn(CCO)c3)c2c1)c1c(Cl)cncc1Cl | 91.7 | 88.7 | 93.6 | 94.2 | 94.2 | 86.2 | 83.9 | 88.3 | 86.2 | 12.2 | 51.3 | 85.9 | 89.8 | 89.4 | 94.3 | 100 | 89.5 | 93.9 | 89.7 | 75.9 | 19.3 | 38 | 78.3 | 92.2 | 83.8 | 90.3 | 94.6 | 86.1 | 76.7 | 86.8 | 88.6 | 23.5 | 41.6
6 | CCNC(=O)c1noc(-c2cc(C(C)C)c(O)cc2O)c1-c1ccc(CN2CCOCC2)cc1 | 103 | 111 | 112 | 113 | 109 | 52 | 53.9 | 50.1 | 52 | 45.8 | 44.2 | 111 | 116 | 115 | 117 | 97.4 | 41 | 43.5 | 39.6 | 47.2 | 40.1 | 35.8 | 96.9 | 112 | 108 | 115 | 100 | 42.1 | 43.8 | 41.1 | 44.9 | 39.4 | 37.3
7 | COc1cc2nc(N3CCN(C(=O)c4ccco4)CC3)nc(N)c2cc1OC | 88.4 | 91.4 | 95 | 102 | 99 | 93.2 | 110 | 84.7 | 97.1 | 55.1 | 4.81 | 84.1 | 88.8 | 97.8 | 91.6 | 98.2 | 103 | 87 | 95 | 91.2 | 98.9 | 5.43 | 77.1 | 74.4 | 91 | 80.1 | 90.7 | 85.3 | 93.5 | 89.1 | 90.1 | 95.1 | 5.58
8 | COc1cc([C@@H]2c3cc4c(cc3[C@@H](O[C@@H]3O[C@@H]5CO[C@@H](C)O[C@H]5[C@H](O)[C@H]3O)[C@H]3COC(=O)[C@H]23)OCO4)cc(OC)c1O | 87.1 | 89.5 | 90.2 | 80.9 | 76.8 | 85.8 | 73.1 | 12.1 | 3.56 | 1.85 | 6.17 | 79.5 | 86.9 | 78.2 | 76 | 83.6 | 67.6 | 51.7 | 6.56 | 3.5 | 3.55 | 4.21 | 73.4 | 78.2 | 84.7 | 78.1 | 78.7 | 74.1 | 63.9 | 8.76 | 4.69 | 3.79 | 4.42
9 | COc1ccccc1N1CCN(CC(O)COc2cccc3ccccc23)CC1 (centres undefined) | 119 | 123 | 127 | 117 | 125 | 132 | 116 | 121 | 120 | 106 | 109 |  |  |  |  |  |  |  |  |  |  |  | 121 | 123 | 126 | 117 | 127 | 125 | 115 | 109 | 107 | 90.4 | 82.4
10 | COC1=CC=CC(=C1/C2=N/CC3=C(N=C(NC4=CC(=C(C=C4)C(O)=O)OC)N=C3)C5=CC=C(Cl)C=C25)F | 82.2 | 87.8 | 82.3 | 87.8 | 56 | 16.6 | 13.5 | 12 | 13.9 | 18.2 | 20.5 | 93.8 | 81.6 | 77.9 | 83 | 49 | 22.4 | 16 | 16 | 15.8 | 22.1 | 28.5 | 81 | 80.3 | 77.8 | 77.7 | 49.6 | 30 | 24.2 | 23 | 27.2 | 29.7 | 35.4
11 | CCCC[N+]1(C)[C@@H]2CC(OC(=O)[C@H](CO)c3ccccc3)C[C@H]1[C@@H]1O[C@@H]12 (some centres undefined) | 114 | 121 | 123 | 118 | 116 | 128 | 118 | 95.2 | 104 | 103 | 110 |  |  |  |  |  |  |  |  |  |  |  |  |  |  |  |  |  |  |  |  |  | 
12 | C=C1C(=O)O[C@@H]2[C@H]3O[C@]3(C)CC/C=C(\C)CC[C@@H]12 | 106 | 104 | 114 | 114 | 119 | 124 | 122 | 79.6 | 5.39 | 2.97 | 2.95 | 103 | 109 | 117 | 117 | 127 | 127 | 125 | 101 | 13.5 | 3.52 | 2.86 | 105 | 112 | 118 | 125 | 127 | 123 | 121 | 91.8 | 5.63 | 2.98 | 2.57
13 | NC/1=N/C(=O)C2=C([NH]C=C2CCC3=CC=C(C=C3)C(=O)N[C@@H](CCC(O)=O)C(O)=O)N1 | 106 | 109 | 106 | 107 | 99.8 | 114 | 105 | 64.4 | 35.4 | 29.3 | 28.2 | 102 | 113 | 108 | 107 | 110 | 108 | 96.9 | 90 | 64.5 | 54.9 | 47.5 | 96.5 | 106 | 103 | 103 | 104 | 104 | 99.1 | 88.4 | 56.1 | 48.1 | 44.4
14 | O=C(O)C(=O)Nc1cccc(-c2nnn[nH]2)c1 | 101 | 94.9 | 103 | 108 | 108 | 106 | 105 | 106 | 112 | 112 | 111 | 109 | 111 | 106 | 112 | 126 | 107 | 113 | 114 | 108 | 116 | 107 | 100 | 105 | 106 | 108 | 107 | 106 | 100 | 105 | 98.4 | 105 | 102
15 | CNC(=O)c1ccccc1Sc1ccc2c(/C=C/c3ccccn3)n[nH]c2c1 | 116 | 111 | 107 | 115 | 112 | 109 | 106 | 84.5 | 77.8 | 17.9 | 14 | 117 | 116 | 126 | 116 | 110 | 97.2 | 108 | 87 | 78.9 | 28 | 21.6 |  |  |  |  |  |  |  |  |  |  | 
16 | Cc1cccc(Nc2nc(N[C@@H]3CCCC[C@@H]3N)ncc2C(N)=O)c1 | 110 | 113 | 121 | 117 | 119 | 116 | 114 | 30.9 | 11 | 10.8 | 14.5 | 120 | 107 | 110 | 102 | 117 | 97.9 | 107 | 103 | 35.1 | 13.7 | 14.7 | 103 | 108 | 123 | 123 | 121 | 127 | 125 | 80.5 | 24.3 | 23.3 | 27.5
